Experimental data reported in patent US11987586B1 (TAKEDA PHARMACEUTICAL COMPANY LIMITED, priority 2022, dated 2024).

Target: T1, human OX2 receptor (Homo sapiens, UniProt O43614)
T1 construct: expressed in transfected cells
T1 sequence (O43614 1-444): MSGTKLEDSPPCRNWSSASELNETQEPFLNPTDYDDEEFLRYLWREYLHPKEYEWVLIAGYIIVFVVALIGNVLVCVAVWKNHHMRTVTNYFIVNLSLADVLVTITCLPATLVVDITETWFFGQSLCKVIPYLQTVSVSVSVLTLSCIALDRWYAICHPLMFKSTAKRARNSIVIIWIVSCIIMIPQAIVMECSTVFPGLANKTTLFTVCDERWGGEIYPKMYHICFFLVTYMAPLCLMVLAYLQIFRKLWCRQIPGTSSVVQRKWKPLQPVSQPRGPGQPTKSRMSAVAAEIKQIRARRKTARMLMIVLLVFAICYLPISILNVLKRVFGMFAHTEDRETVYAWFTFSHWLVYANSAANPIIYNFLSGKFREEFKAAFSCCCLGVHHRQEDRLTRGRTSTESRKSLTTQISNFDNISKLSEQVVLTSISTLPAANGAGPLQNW
Experiment: Measurement of orexin type 2 receptor agonist activity (calcium fluorescence, Fluo-4, FDSS)
Type: cell-based
Details: 3 uM test compound; CHO cells expressing human OX2 receptor; DMSO = 0%, 10 nM orexin A (human) = 100%
In short: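 CHO-K1 cells stably expressing human OX2 receptor (residues 1-444) were loaded with Fluo-4 AM plus probenecid. Calcium fluorescence after compound addition was recorded for 1 min 40 s. Activity (%) was scaled between DMSO (0%) and 10 nM orexin A final (100%).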

| Structure (SMILES) | OX2R agonist activity (3 uM, %) |
| --- | --- |
| CCS(=O)(=O)N[C@H]1Cc2c(C)n(-c3noc4cc(C(F)(F)F)cc(-c5c(F)cccc5F)c34)c(=O)n2C1 [Example 86, N-{(6S)-2-[4-(2,6-difluorophenyl)-6-(trifluoromethyl)-1,2-benzoxazol-3-yl]-1-methyl-3-oxo-2,5,6,7-tetrahydro-3H-pyrrolo[1,2-c]imidazol-6-yl}ethanesulfonamide] | 103% |
| CCS(=O)(=O)N[C@@H]1CN2C(=O)N(c3noc4ccc(F)c(-c5c(F)cc(F)cc5F)c34)C[C@@H]2C1(F)F [Example 105, N-{(6R,7aR)-7,7-difluoro-2-[5-fluoro-4-(2,4,6-trifluorophenyl)-1,2-benzoxazol-3-yl]-3-oxohexahydro-1H-pyrrolo[1,2-c]imidazol-6-yl}ethanesulfonamide] | 96% |
| CS(=O)(=O)NC1Cn2c(cn(-c3noc4cccc(-c5c(F)cccc5F)c34)c2=O)CC1(F)F (single isomer, unassigned) [Example 117, N-{(6R*)-2-[4-(2,6-difluorophenyl)-1,2-benzoxazol-3-yl]-7,7-difluoro-3-oxo-2,3,5,6,7,8-hexahydroimidazo[1,5-a]pyridin-6-yl}methanesulfonamide] | 97% |
| CCS(=O)(=O)N[C@@H]1Cn2c(cn(-c3noc4cccc(-c5c(F)cc(F)cc5F)c34)c2=O)C1(F)F [Example 91, N-{(6R)-7,7-difluoro-3-oxo-2-[4-(2,4,6-trifluorophenyl)-1,2-benzoxazol-3-yl]-2,5,6,7-tetrahydro-3H-pyrrolo[1,2-c]imidazol-6-yl}ethanesulfonamide] | 103% |
| CS(=O)(=O)N[C@@H]1Cn2c(cn(-c3noc4cc(C(F)(F)F)cc(-c5c(F)cc(F)cc5F)c34)c2=O)C1(F)F [Example 130, N-{(6R)-7,7-difluoro-3-oxo-2-[6-(trifluoromethyl)-4-(2,4,6-trifluorophenyl)-1,2-benzoxazol-3-yl]-2,5,6,7-tetrahydro-3H-pyrrolo[1,2-c]imidazol-6-yl}methanesulfonamide] | 99% |
| CS(=O)(=O)N[C@@H]1CC[C@H]2CN(c3noc4cccc(-c5c(F)cccc5F)c34)C(=O)N2C1 (relative stereo) [Example 63, rel-N-{(6R, 8aS)-2-[4-(2,6-difluorophenyl)-1,2-benzoxazol-3-yl]-3-oxooctahydroimidazo[1,5-a]pyridin-6-yl}methanesulfonamide] | 107% |
| CCS(=O)(=O)N[C@@H]1Cn2c(cn(-c3noc4cc(F)c(F)c(-c5c(F)cc(F)cc5F)c34)c2=O)C1(F)F [Example 121, N-{(6R)-2-[5,6-difluoro-4-(2,4,6-trifluorophenyl)-1,2-benzoxazol-3-yl]-7,7-difluoro-3-oxo-2,5,6,7-tetrahydro-3H-pyrrolo[1,2-c]imidazol-6-yl}ethanesulfonamide] | 93% |
| CCS(=O)(=O)N[C@@H]1CN2C(=O)N(c3noc4cc(F)cc(-c5c(F)cc(F)cc5F)c34)C[C@@H]2C1(F)F [Example 124, N-{(6R,7aR)-7,7-Difluoro-2-[6-fluoro-4-(2,4,6-trifluorophenyl)-1,2-benzoxazol-3-yl]-3-oxohexahydro-1H-pyrrolo[1,2-c]imidazol-6-yl}ethanesulfonamide] | 101% |
| CCS(=O)(=O)N[C@H]1Cc2cn(-c3cnn4cccc(-c5c(F)cccc5F)c34)c(=O)n2C1 [Example 2, N-{(6S)-2-[4-(2,6-difluorophenyl)pyrazolo[1,5-a]pyridin-3-yl]-3-oxo-2,5,6,7-tetrahydro-3H-pyrrolo[1,2-c]imidazol-6-yl}ethanesulfonamide] | 108% |
| CNS(=O)(=O)N[C@@H]1CN2C(=O)N(c3noc4cc(F)cc(-c5c(F)cc(F)cc5F)c34)C[C@@H]2C1(F)F [Example 144, N-{(6R,7aR)-7,7-Difluoro-2-[6-fluoro-4-(2,4,6-trifluorophenyl)-1,2-benzoxazol-3-yl]-3-oxohexahydro-1H-pyrrolo[1,2-c]imidazol-6-yl}-N′-methylsulfuric diamide] | 102% |

Now from value to compound:

| OX2R agonist activity (3 uM, %) | Structure (SMILES) |
| --- | --- |
| 111% | CCS(=O)(=O)N[C@@H]1CN2C(=O)N(c3noc4cccc(-c5ccccc5F)c34)CC[C@@H]2C1(F)F [Example 334, N-{(4aR,6R)-5,5-difluoro-2-[4-(2-fluorophenyl)-1,2-benzoxazol-3-yl]-1-oxooctahydropyrrolo[1,2-c]pyrimidin-6-yl}ethanesulfonamide] |
| 107% | CN(C)S(=O)(=O)N[C@@H]1Cn2c(cn(-c3noc4ccc(F)c(-c5c(F)cc(F)cc5F)c34)c2=O)C1(F)F [Example 264, N′-{(6R)-7,7-difluoro-2-[5-fluoro-4-(2,4,6-trifluorophenyl)-1,2-benzoxazol-3-yl]-3-oxo-2,5,6,7-tetrahydro-3H-pyrrolo[1,2-c]imidazol-6-yl}-N,N-dimethylsulfuric diamide] |
| 102% | CS(=O)(=O)N[C@@H]1CN2C(=O)N(c3noc4cc(F)cc(-c5c(F)cc(F)cc5F)c34)CC[C@@H]2C1(F)F [Example 208, N-{(4aR,6R)-5,5-difluoro-2-[6-fluoro-4-(2,4,6-trifluorophenyl)-1,2-benzoxazol-3-yl]-1-oxooctahydropyrrolo[1,2-c]pyrimidin-6-yl}methanesulfonamide] |
| 101% | CCOc1cc(-c2c(F)cc(F)cc2F)c2c(N3CC[C@H]4N(C[C@@H](NS(=O)(=O)CC)C4(F)F)C3=O)noc2c1 [Example 307, N-{(4aR,6R)-2-[6-ethoxy-4-(2,4,6-trifluorophenyl)-1,2-benzoxazol-3-yl]-5,5-difluoro-1-oxooctahydropyrrolo[1,2-c]pyrimidin-6-yl}ethanesulfonamide] |
| 101% | CCS(=O)(=O)N[C@@H]1CN2C(=O)N(c3noc4cccc(-c5ccccc5C)c34)CC[C@@H]2C1(F)F [Example 325, N-{(4aR,6R)-5,5-difluoro-2-[4-(2-methylphenyl)-1,2-benzoxazol-3-yl]-1-oxooctahydropyrrolo[1,2-c]pyrimidin-6-yl}ethanesulfonamide] |
| 98% | CNS(=O)(=O)N[C@@H]1Cn2c(cn(-c3noc4ccc(F)c(-c5c(F)cc(F)cc5F)c34)c2=O)C1(F)F [Example 301, N-{(6R)-7,7-difluoro-2-[5-fluoro-4-(2,4,6-trifluorophenyl)-1,2-benzoxazol-3-yl]-3-oxo-2,5,6,7-tetrahydro-3H-pyrrolo[1,2-c]imidazol-6-yl}-N′-methylsulfuric diamide] |
| 103% | CS(=O)(=O)NC1Cn2c(cn(-c3noc4ccc(F)c(-c5c(F)cc(F)cc5F)c34)c2=O)CC1(F)F (single isomer, unassigned) [Example 231, N-{(6R*)-7,7-difluoro-2-[5-fluoro-4-(2,4,6-trifluorophenyl)-1,2-benzoxazol-3-yl]-3-oxo-2,3,5,6,7,8-hexahydroimidazo[1,5-a]pyridin-6-yl}methanesulfonamide] |
| 105% | CCOc1cc(-c2c(F)cccc2F)c2c(N3CC[C@H]4N(C[C@@H](NS(C)(=O)=O)C4(F)F)C3=O)noc2c1 [Example 199, N-{(4aR,6R)-2-[4-(2,6-difluorophenyl)-6-ethoxy-1,2-benzoxazol-3-yl]-5,5-difluoro-1-oxooctahydropyrrolo[1,2-c]pyrimidin-6-yl}methanesulfonamide] |
| 97% | CCS(=O)(=O)N[C@@H]1CN2C(=O)N(c3noc4cccc(-c5ccco5)c34)CC[C@@H]2C1(F)F [Example 324, N-{(4aR,6R)-5,5-difluoro-2-[4-(furan-2-yl)-1,2-benzoxazol-3-yl]-1-oxooctahydropyrrolo[1,2-c]pyrimidin-6-yl}ethanesulfonamide] |
| 101% | CS(=O)(=O)N[C@H]1C[C@H]2CCN(c3noc4cc(F)cc(-c5c(F)cccc5F)c34)C(=O)N2C1 [Example 253, N-{(4aR,6S)-2-[4-(2,6-difluorophenyl)-6-fluoro-1,2-benzoxazol-3-yl]-1-oxooctahydropyrrolo[1,2-c]pyrimidin-6-yl}methanesulfonamide] |
| 105% | O=C1N(c2noc3cccc(-c4c(F)cccc4F)c23)CC[C@H]2N1C[C@@H](NS(=O)(=O)C1CC1)C2(F)F [Example 285, N-{(4aR,6R)-2-[4-(2,6-difluorophenyl)-1,2-benzoxazol-3-yl]-5,5-difluoro-1-oxooctahydropyrrolo[1,2-c]pyrimidin-6-yl}cyclopropanesulfonamide] |
| 107% | O=C1N(c2noc3cccc(-c4ncc(F)cc4F)c23)CC[C@H]2N1C[C@@H](NS(=O)(=O)C1CC1)C2(F)F [Example 319, N-{(4aR,6R)-2-[4-(3,5-difluoropyridin-2-yl)-1,2-benzoxazol-3-yl]-5,5-difluoro-1-oxooctahydropyrrolo[1,2-c]pyrimidin-6-yl}cyclopropanesulfonamide] |
| 107% | O=C1N(c2noc3cc(F)cc(-c4c(F)cc(F)cc4F)c23)CC[C@H]2N1C[C@@H](NS(=O)(=O)C1CC1)C2(F)F [Example 281, N-{(4aR,6R)-5,5-difluoro-2-[6-fluoro-4-(2,4,6-trifluorophenyl)-1,2-benzoxazol-3-yl]-1-oxooctahydropyrrolo[1,2-c]pyrimidin-6-yl}cyclopropanesulfonamide] |
